Data on 35 substances can be found in US20120016009A1, “Optimized Methods For Delivery Of DSRNA Targeting The PCSK9 Gene” (priority 2008, published 2012).

In this series the test system is PCSK9 mRNA. Nature of the series: PCSK9 siRNA screening in HepG2 cells (lipofectamine 2000 transfection, PCSK9 mRNA by Quantigene, normalized to GAP-DH). Type of series: cell-based, human. To be noted: for Mean percent remaining mRNA transcript at siRNA concentration/in cell type 3 nM/HepG2: 3 nM siRNA; for Mean percent remaining mRNA transcript at siRNA concentration/in cell type 30 nM/HepG2: 30 nM siRNA; for Mean percent remaining mRNA transcript at siRNA concentration/in cell type 100 nM/HepG2: 100 nM siRNA. Put shortly: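 HepG2 cells, grown in MEM with 10% fetal calf serum, antibiotics, non-essential amino acids and sodium pyruvate at 37° C. and 5% CO2, were plated at 2.0×10^4 cells/well in 96-well plates and transfected directly with siRNA using lipofectamine 2000. After 24 hours, cells were lysed and PCSK9 mRNA was measured by Quantigene and normalized to GAP-DH mRNA.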

In the oligonucleotide strings, read from the 5' end, every base follows the letter of its sugar. An asterisk marks phosphorothioate; unmarked linkages are phosphodiester. Other units and linkages are bracketed, terminal groups are in braces. A string of capitals states the bases alone. d = 2'-deoxy (DNA); m = 2'-O-methyl; r = 2'-OH (RNA)

On to “AD-9760: PCSK9 siRNA (sense mCmUmCmUrGmUmUrGmCmCmUmUmUmUmUrAmCrArGdT*dT; antisense rCrUrGmUrArArArArArGrGmCrArAmCrArGrArGdT*dT)”, for which the “Mean percent remaining mRNA transcript at siRNA concentration/in cell type 3 nM/HepG2” value was 27% and the “Mean percent remaining mRNA transcript at siRNA concentration/in cell type 30 nM/HepG2” value was 14%. In the case of “AD-9528: PCSK9 siRNA (sense rCrGrGrUrArCrCrGrGrGrCrGrGrArUrGrArArUdT*dT; antisense rArUrUrCrArUrCrCrGrCrCrCrGrGrUrArCrCrGdT*dT)”, the “Mean percent remaining mRNA transcript at siRNA concentration/in cell type 30 nM/HepG2” value is on record as 113%. Consider “AD-9546: PCSK9 siRNA (sense rUrArGrCrCrUrUrGrCrGrUrUrCrCrGrArGrGrAdT*dT; antisense rUrCrCrUrCrGrGrArArCrGrCrArArGrGrCrUrAdT*dT)”, for which the “Mean percent remaining mRNA transcript at siRNA concentration/in cell type 30 nM/HepG2” value turned out to be 32%. Consider “AD-9578: PCSK9 siRNA (sense rCrArUrUrUrArUrCrUrUrUrUrGrGrGrUrCrUrGdT*dT; antisense rCrArGrArCrCrCrArArArArGrArUrArArArUrGdT*dT)”, for which the “Mean percent remaining mRNA transcript at siRNA concentration/in cell type 30 nM/HepG2” value came out at 61% and the “Mean percent remaining mRNA transcript at siRNA concentration/in cell type 100 nM/HepG2” value was 49%. For the substance “AD-9537: PCSK9 siRNA (sense rArCrGrGrUrArCrCrGrGrGrCrGrGrArUrGrArAdT*dT; antisense rUrUrCrArUrCrCrGrCrCrCrGrGrUrArCrCrGrUdT*dT)”, the “Mean percent remaining mRNA transcript at siRNA concentration/in cell type 30 nM/HepG2” value turned out to be 145%. As to “AD-9594: PCSK9 siRNA (sense rGrCrUrGrCrCrGrGrCrArArCrUrUrCrCrGrGrGdT*dT; antisense rCrCrCrGrGrArArGrUrUrGrCrCrGrGrCrArGrCdT*dT)”, the “Mean percent remaining mRNA transcript at siRNA concentration/in cell type 30 nM/HepG2” value was 95% and the “Mean percent remaining mRNA transcript at siRNA concentration/in cell type 100 nM/HepG2” value was 80%. Regarding “AD-9715: PCSK9 siRNA (sense mCrAmCmCrGmCmUrGmCmCrGrGmCrArAmCmUmUmCdT*dT; antisense rGrArArGrUrUrGrCrCrGrGmCrArGrCrGrGrUrGdT*dT)”, the “Mean percent remaining mRNA transcript at siRNA concentration/in cell type 30 nM/HepG2” value came out at 113%. The same measure, in the same setting: as for “AD-9730: PCSK9 siRNA (sense mCmUmCrArGmCmCrArAmCmCmCrGmCmUmCmCrAmCdT*dT; antisense rGrUrGrGrArGrCrGrGrGrUrUrGrGrCrUrGrArGdT*dT)”, the figure is 85%. As for “AD-9557: PCSK9 siRNA (sense rCrCrArCrCrGrGrGrArArArUrCrGrArGrGrGrCdT*dT; antisense rGrCrCrCrUrCrGrArUrUrUrCrCrCrGrGrUrGrGdT*dT)”, the “Mean percent remaining mRNA transcript at siRNA concentration/in cell type 30 nM/HepG2” value is 96% and the “Mean percent remaining mRNA transcript at siRNA concentration/in cell type 100 nM/HepG2” value is listed as 75%. “AD-9707: PCSK9 siRNA (sense mUrGmCrGmCrGmUrGmCmUmCrArAmCmUrGmCmCrAdT*dT; antisense rUrGrGmCrArGrUrUrGrArGmCrArCrGrCrGmCrAdT*dT)”: the “Mean percent remaining mRNA transcript at siRNA concentration/in cell type 30 nM/HepG2” value amounted to 81%. As to “AD-9687: PCSK9 siRNA (sense rGrAmCrAmCmCrArGmCrAmUrAmCrArGrArGmUrGdT*dT; antisense mCrArCrUrCrUrGmUrArUrGrCrUrGrGrUrGrUrCdT*dT)”, the “Mean percent remaining mRNA transcript at siRNA concentration/in cell type 30 nM/HepG2” value is 84%. Take “AD-9711: PCSK9 siRNA (sense mCrGrGmCrArAmCmUmUmCmCrGrGrGrAmCrGrAmUdT*dT; antisense rArUrCrGrUrCrCrCrGrGrArArGrUrUrGrCrCrGdT*dT)”: the “Mean percent remaining mRNA transcript at siRNA concentration/in cell type 30 nM/HepG2” value is recorded as 122%. With “AD-9666: PCSK9 siRNA (sense rArGrArGmUrGrAmCmCrAmCmCrGrGrGrArArAmUdT*dT; antisense rArUrUrUrCrCrCrGrGrUrGrGrUmCrArCrUrCrUdT*dT)”, the “Mean percent remaining mRNA transcript at siRNA concentration/in cell type 30 nM/HepG2” value is on record as 81%. For the substance “AD-9515: PCSK9 siRNA (sense rGrGrUrArCrCrGrGrGrCrGrGrArUrGrArArUrAdT*dT; antisense rUrArUrUrCrArUrCrCrGrCrCrCrGrGrUrArCrCdT*dT)”, the “Mean percent remaining mRNA transcript at siRNA concentration/in cell type 30 nM/HepG2” value worked out at 49%. On to “AD-9548: PCSK9 siRNA (sense rGrCrArGrUrCrArGrArGrCrGrCrArCrUrGrCrCdT*dT; antisense rGrGrCrArGrUrGrCrGrCrUrCrUrGrArCrUrGrCdT*dT)”, for which the “Mean percent remaining mRNA transcript at siRNA concentration/in cell type 3 nM/HepG2” value stood at 60% and the “Mean percent remaining mRNA transcript at siRNA concentration/in cell type 30 nM/HepG2” value turned out to be 54%. As for “AD-9516: PCSK9 siRNA (sense rUrGrUrArUrCrUrCrCrUrArGrArCrArCrCrArGdT*dT; antisense rCrUrGrGrUrGrUrCrUrArGrGrArGrArUrArCrAdT*dT)”, the “Mean percent remaining mRNA transcript at siRNA concentration/in cell type 30 nM/HepG2” value was 94%.

Take “AD-9584: PCSK9 siRNA (sense rCrCrCrUrGrGrCrGrGrGrUrGrGrGrUrArCrArGdT*dT; antisense rCrUrGrUrArCrCrCrArCrCrCrGrCrCrArGrGrGdT*dT)”: the “Mean percent remaining mRNA transcript at siRNA concentration/in cell type 30 nM/HepG2” value came to 68% and the “Mean percent remaining mRNA transcript at siRNA concentration/in cell type 100 nM/HepG2” value came to 52%.

Consider “AD-9725: PCSK9 siRNA (sense mUmUmCmUrGrGrAmUrGrGmCrAmUmCmUrArGmCmCdT*dT; antisense rGrGrCmUrArGrArUrGrCmCrArUrCmCrArGrArAdT*dT)”, for which the “Mean percent remaining mRNA transcript at siRNA concentration/in cell type 30 nM/HepG2” value is listed as 38%. The same measure, in the same setting: as for “AD-9708: PCSK9 siRNA (sense mCmCrArGmCrAmUmCmCrAmCrGmCmUmUmCmCmUrGdT*dT; antisense mCrArGrGrArArGrCrGrUrGrGrArUrGrCrUrGrGdT*dT)”, the figure is 81%. For the substance “AD-9626: PCSK9 siRNA (sense rUrGrArArGrArUrArUrUrUrArUrUrCrUrGrGrGdT*dT; antisense rCrCrCrArGrArArUrArArArUrArUrCrUrUrCrAdT*dT)”, the “Mean percent remaining mRNA transcript at siRNA concentration/in cell type 3 nM/HepG2” value was 68% and the “Mean percent remaining mRNA transcript at siRNA concentration/in cell type 30 nM/HepG2” value is reported as 97%. As to “AD-9617: PCSK9 siRNA (sense rArUrGrCrUrGrUrCrUrGrCrCrGrArGrCrCrGrGdT*dT; antisense rCrCrGrGrCrUrCrGrGrCrArGrArCrArGrCrArUdT*dT)”, the “Mean percent remaining mRNA transcript at siRNA concentration/in cell type 30 nM/HepG2” value was determined as 111%.

With “AD-9583: PCSK9 siRNA (sense rCrCrCrArUrGrUrCrGrArCrUrArCrArUrCrGrAdT*dT; antisense rUrCrGrArUrGrUrArGrUrCrGrArCrArUrGrGrGdT*dT)”, the “Mean percent remaining mRNA transcript at siRNA concentration/in cell type 30 nM/HepG2” value turned out to be 42%. As for “AD-9523: PCSK9 siRNA (sense rCrArGrCrCrArGrGrArUrUrCrCrGrCrGrCrGrCdT*dT; antisense rGrCrGrCrGrCrGrGrArArUrCrCrUrGrGrCrUrGdT*dT)”, the “Mean percent remaining mRNA transcript at siRNA concentration/in cell type 30 nM/HepG2” value turned out to be 55%. On to “AD-9608: PCSK9 siRNA (sense rUrGrCrUrArGrCrCrUrUrGrCrGrUrUrCrCrGrAdT*dT; antisense rUrCrGrGrArArCrGrCrArArGrGrCrUrArGrCrAdT*dT)”, for which the “Mean percent remaining mRNA transcript at siRNA concentration/in cell type 30 nM/HepG2” value was determined as 37%. Regarding “AD-9538: PCSK9 siRNA (sense rCrCrGrGrGrCrGrGrArUrGrArArUrArCrCrArGdT*dT; antisense rCrUrGrGrUrArUrUrCrArUrCrCrGrCrCrCrGrGdT*dT)”, the “Mean percent remaining mRNA transcript at siRNA concentration/in cell type 30 nM/HepG2” value was 80% and the “Mean percent remaining mRNA transcript at siRNA concentration/in cell type 100 nM/HepG2” value worked out at 79%. “AD-9640: PCSK9 siRNA (sense rGmUrAmCmCrGrGrGmCrGrGrAmUrGrArAmUrAmCdT*dT; antisense rGmUrArUrUmCrArUrCrCrGrCrCrCrGrGmUrArCdT*dT)”: the “Mean percent remaining mRNA transcript at siRNA concentration/in cell type 30 nM/HepG2” value is given as 89%. Consider “AD-9579: PCSK9 siRNA (sense rArUrCrGrArGrGrArGrGrArCrUrCrCrUrCrUrGdT*dT; antisense rCrArGrArGrGrArGrUrCrCrUrCrCrUrCrGrArUdT*dT)”, for which the “Mean percent remaining mRNA transcript at siRNA concentration/in cell type 30 nM/HepG2” value is recorded as 113%. Same read-out and setting: as for “AD-9550: PCSK9 siRNA (sense rGrArGrGrGrUrGrUrCrUrArCrGrCrCrArUrUrGdT*dT; antisense rCrArArUrGrGrCrGrUrArGrArCrArCrCrCrUrCdT*dT)”, the figure is 36%; as for “AD-9532: PCSK9 siRNA (sense rCrCrGrGrGrCrCrCrArCrArArCrGrCrUrUrUrUdT*dT; antisense rArArArArGrCrGrUrUrGrUrGrGrGrCrCrCrGrGdT*dT)”, 100%; as for “AD-9552: PCSK9 siRNA (sense rArGrGrArGrCrArUrGrGrArArUrCrCrCrGrGrCdT*dT; antisense rGrCrCrGrGrGrArUrUrCrCrArUrGrCrUrCrCrUdT*dT)”, 80%. On the same count and under the same terms, as for “AD-9643: PCSK9 siRNA (sense GGAGGuGuAucuccuAGAcTsT; antisense GUCuAGGAGAuAcACCUCCTsT; as printed in the source, key not given here)”, the figure is 40%.

In the case of “AD-9562: PCSK9 siRNA (sense rUrCrUrCrCrUrArGrArCrArCrCrArGrCrArUrAdT*dT; antisense rUrArUrGrCrUrGrGrUrGrUrCrUrArGrGrArGrAdT*dT)”, the “Mean percent remaining mRNA transcript at siRNA concentration/in cell type 3 nM/HepG2” value is 51% and the “Mean percent remaining mRNA transcript at siRNA concentration/in cell type 30 nM/HepG2” value was 46%.

As to “AD-9517: PCSK9 siRNA (sense rGrGrArGrGrUrGrUrArUrCrUrCrCrUrArGrArCdT*dT; antisense rGrUrCrUrArGrGrArGrArUrArCrArCrCrUrCrCdT*dT)”, the “Mean percent remaining mRNA transcript at siRNA concentration/in cell type 30 nM/HepG2” value stood at 36%.

Consider “AD-9692: PCSK9 siRNA (sense mUrGmCmCrGrGrGmCmCmCrAmCrArAmCrGmCmUmUdT*dT; antisense rArArGrCrGrUrUrGrUrGrGrGrCrCrCrGrGmCrAdT*dT)”, for which the “Mean percent remaining mRNA transcript at siRNA concentration/in cell type 30 nM/HepG2” value is 78%.

As to “AD-9602: PCSK9 siRNA (sense rCrArGrCrGrGrCrCrGrGrGrArUrGrCrCrGrGrCdT*dT; antisense rGrCrCrGrGrCrArUrCrCrCrGrGrCrCrGrCrUrGdT*dT)”, the “Mean percent remaining mRNA transcript at siRNA concentration/in cell type 30 nM/HepG2” value came out at 126%.
